Key:
[1] = tested on: platelets (CD62P+) and CD4+ T cells (CD69+) in whole blood; assay: In vitro whole blood platelet and CD4+ T-cell activation assay; format: cell-based, human; details: whole blood from healthy donors; platelets to CD4+ T cells
Procedure: We developed a novel human whole blood assay to determine whether other PKC agonists also activate platelets at the same concentrations that are required to activate CD4^+ T cells. Platelet activation was assessed by CD62P (P-selectin), which traffics to the cell surface upon activation and α-granule release. CD4^+ T-cell activation was assessed by CD69 upregulation (Fig 7A).
Whole blood was drawn into sodium citrate tubes using a 21-gauge needle. To prevent potential interference from tissue thromboplastin released during venipuncture, which could affect the accuracy of coagulation testing, the first 2 mL of blood drawn was discarded. PKC agonist molecules were dispensed in a dilution series into 80 μL of blood per well in a flat-bottom 96-well plate and mixed gently. Care was taken not to introduce any mechanical stress-related activation of platelets. […] The remaining 72 μL of blood in the first plate was incubated for 1 additional hour and stained with anti-human CD3 (UCHT1), CD4 (SK3), and CD69 (FN50) (30 minutes in the dark). Red blood cell lysis and fixing was done using BD lyse/fix solution. Stained cells were acquired on BD LSR Fortessa II after washing. […] EC50 values for platelet and CD4 T-cell activation for each agonist was obtained by nonlinear regression curve fit using GraphPad Prism version 9.3.0.

[2] = tested on: latent HIV in total CD4+ T cells; assay: microbe, parasite or virus in culture; format: cell-based, HIV-1; details: Human immunodeficiency virus 1, CD4+ T, read-out: EC50, activation of HIV expression
Procedure: Peripheral blood mononuclear cells and CD4^+ T cells used for evaluating PKC agonist and inhibitor molecules were isolated from leukopaks of selected participants as described previously. Isolated CD4^+ T cells (5×10^6 cells/well) were added to 24-well tissue culture plates in 2.5 mL of RPMI medium containing 100 nM each of elvitegravir and efavirenz. Cells were stimulated with DMSO (vehicle control) or the indicated concentrations of PKC agonist molecules. Cells were pretreated with PKC isoform inhibitors (Selleck Chemicals) for 1 hour before addition of PKC agonist at indicated concentrations and maintained at 37 °C, 5% CO2 for 3 days. Cell supernatants from each well were analyzed using the Cobas […] system for quantification of HIV-1 RNA using the HIV-1 test v2.0 kit (Roche Diagnostics).

CD69 on CD4+ T cells = assay: CD4+ T-cell activation flow cytometry (CD69); format: cell-based; details: Homo sapiens; CD4+ T cells from ART-suppressed people with HIV; read-out: EC50, activation of CD69 expression
Procedure: Sixteen hours post treatment with PKC agonists, cellular activation of 100,000 CD4^+ T cells, taken from the above ex vivo HIV activation cultures, was assessed using flow cytometry. Cell surface expression of CD69 was measured on CD4^+ T cells using anti-human CD3 (UCHT1), CD4 (SK3) and CD69 (FN50) antibodies and standard flow staining methods. Stained cells were acquired on the Becton Dickinson (BD) LSR Fortessa II flow cytometer and results were analyzed using FlowJo software.

platelet-rich plasma = assay: Platelet aggregation assay (light transmittance aggregometry); format: cell-based, human; details: dilution series, 20 minutes
Procedure: Given that C-232A induced DIC in rats and monkeys, we tested whether C-232A could directly induce platelet activation and downstream aggregation. […] Adenosine diphosphate, a known platelet agonist, was used as a positive control (S7A Fig).
Aggregation of platelets was assessed using light transmittance aggregometry using standard methods.
(A) Assay principle for platelet aggregation assay.

PBMCs = assay: Cytokine induction in vitro in PBMC culture supernatants; format: cell-based, human; details: 24 hours
Procedure: Culture supernatants were analyzed for induction of several cytokines as shown in S3 Table, using a 10-plex MSD (Meso Scale Discovery) assay following manufacturer’s instructions. MSD Workbench 4.0 software was used for data analysis and 4-parameter logistic curve fit model was utilized to determine values of experimental samples from standard curves. Values for each cytokine (pg/mL) for a given concentration was calculated as the geometric mean of all triplicate values combined from all 5 donors.

CC(C)[C@H]1C(=O)N[C@H](CO)Cc2c[nH]c3cccc(c23)N1C [Indolactam, reference compound]
CD62P EC50/CD69 EC50 ratio Geomean [1]: 2.0

CCCCCC(=O)O[C@H]1C(C)=C[C@]23C(=O)[C@@H](C=C(CO)[C@@H](O)[C@]12O)[C@H]1[C@@H](C[C@H]3C)C1(C)C [Ingenol B, reference compound]
CD62P EC50/CD69 EC50 ratio Geomean [1]: 1.8

CCCCCCCCCCCCCC(=O)O[C@@H]1[C@@H](C)[C@@]2(O)[C@@H](C=C(CO)C[C@]3(O)C(=O)C(C)=C[C@@H]23)[C@@H]2C(C)(C)[C@]12OC(C)=O [PMA, phorbol 12-myristate 13-acetate, reference compound]
CD62P EC50/CD69 EC50 ratio Geomean [1]: 1.5

CC(=O)O[C@@]12C[C@@H](C)[C@@]3(O)[C@@H](C=C(CO)C[C@]4(O)C(=O)C(C)=C[C@@H]34)[C@@H]1C2(C)C [Prostratin, prostratin, reference compound]
EC50 [2]: 2500 nM
EC50 (CD69 on CD4+ T cells): 280 nM
platelet aggregation (platelet-rich plasma): stimulated platelet aggregation
GM-CSF in PBMC culture supernatant (PBMCs; 625 nM): 35 pg/mL
IFN-γ in PBMC culture supernatant (PBMCs; 625 nM): 255 pg/mL
IL-1b in PBMC culture supernatant (PBMCs; 625 nM): 57 pg/mL
IL-2 in PBMC culture supernatant (PBMCs; 625 nM): 22 pg/mL
IL-4 in PBMC culture supernatant (PBMCs; 625 nM): 0.7 pg/mL
IL-6 in PBMC culture supernatant (PBMCs; 625 nM): 40 pg/mL
IL-8 in PBMC culture supernatant (PBMCs; 625 nM): 40,698 pg/mL
IL-10 in PBMC culture supernatant (PBMCs; 625 nM): 4 pg/mL
IL-12p70 in PBMC culture supernatant (PBMCs; 625 nM): 10 pg/mL
TNF-α in PBMC culture supernatant (PBMCs; 625 nM): 634 pg/mL
GM-CSF in PBMC culture supernatant (PBMCs; 2500 nM): 68 pg/mL
IFN-γ in PBMC culture supernatant (PBMCs; 2500 nM): 292 pg/mL
IL-1b in PBMC culture supernatant (PBMCs; 2500 nM): 108 pg/mL
IL-2 in PBMC culture supernatant (PBMCs; 2500 nM): 32 pg/mL
IL-4 in PBMC culture supernatant (PBMCs; 2500 nM): 1.1 pg/mL
IL-6 in PBMC culture supernatant (PBMCs; 2500 nM): 78 pg/mL
IL-8 in PBMC culture supernatant (PBMCs; 2500 nM): 45,930 pg/mL
IL-10 in PBMC culture supernatant (PBMCs; 2500 nM): 4.6 pg/mL
IL-12p70 in PBMC culture supernatant (PBMCs; 2500 nM): 12 pg/mL
TNF-α in PBMC culture supernatant (PBMCs; 2500 nM): 1489 pg/mL
